Measured values reported in patent US20130172308A1, “ANTIMICROBIAL AGENTS” (John Grant COLLINS, priority 2011, published 2013).

Experiments:
[1] = tested on: E. coli ATCC 25922; experiment: MIC determination, broth micro-dilution (CAMHB); format: cell-based, Escherichia coli; settings: Table 1; 37° C., 24 h
Method: (§1) Four strains of bacteria were chosen for the susceptibility tests: S. aureus ATCC 25923; MRSA (a wild clinical strain from the JCU culture collection); E. coli ATCC 25922 and P. aeruginosa ATCC 27853. The bacteria were grown on Mueller Hinton agar (OXOID, cat. No. CM0337) and suspended in growth medium cation-adjusted Mueller Hinton broth (CAMHB, OXOID, cat. No. CM0405). The MIC of each complex was determined in duplicate by standard micro-dilution methodology (British Society for Antimicrobial Chemotherapy Working Party, J. Antimicrob. Chemother., 1991, 27(suppl. D), 22) using gentamicin as the positive control. The ruthenium complexes were dissolved in CAMHB to a stock solution of […] and two-fold diluted in the broth in 96-well plates in a final volume of […] in each well. The same volume […] of bacterial suspension was added in each well making a concentration range of 0.25 mg ml^−1 to 128 mg ml^−1 for each complex. The plates were incubated at 37° C. for 24 h. The results are summarised in Table 1 below, using the following abbreviations: • Rubpm=ΔΔ-[{Ru(phen)2}2(μ-2,2′-bipyrimidine)]Cl4 • Rudppm=ΔΔ-[{Ru(phen)2}2(μ-4,6-bis(2-pyridyl)pyrimidine)]Cl4 • Rubb7trinuclear=Δ*Δ*-[{Ru*(phen)2}(μ-bb7){Ru(phen)}(μ-bb7){Ru*(phen)2}]Cl6 (only the two terminal metal centres are chiral, the two central metal centres are racemic) • Rubb7tetranuclear=Δ*Δ*-[{Ru*(phen)2}(μ-bb7) {Ru(phen)}(μ-bb7){Ru(phen)}(μ-bb7)-{Ru*(phen)2}]Cl8 (only the two terminal metal centres are chiral, the two central metal centres are racemic)
(§2) Further MIC assays and Minimum Bactericidal Concentration (MBC) assays were conducted against Gram-positive and Gram-negative bacterial strains using symmetric and non-symmetric, inert and labile complexes.

[2] = tested on: MRSA (a wild clinical strain from the JCU culture collection); experiment: MIC determination, broth micro-dilution (CAMHB); format: cell-based, methicillin-resistant S. aureus; settings: Table 1; 37° C., 24 h
Method: as §1, §2

[3] = tested on: P. aeruginosa ATCC 27853; experiment: MIC determination, broth micro-dilution (CAMHB); format: cell-based, Pseudomonas aeruginosa; settings: Table 1; 37° C., 24 h
Method: as §1, §2

[4] = tested on: S. aureus ATCC 25923; experiment: MIC determination, broth micro-dilution (CAMHB); format: cell-based, Staphylococcus aureus; settings: Table 1; 37° C., 24 h
Method: as §1, §2

[5] = format: physicochemical; settings: pH 7.4
Method: The primary difference between the members of the Rubbn family of complexes is the number of methylene groups in the flexible linking chain. […] Lipophilicity is a significant factor affecting the biological activity of most therapeutic compounds, as it relates to the capacity of the drug to penetrate through the cell membrane. The standard octanol-water partition coefficient (logP) was determined for the Rubbn series (F. Lombardo, B. Faller, M. Shalaeva, I. Tetko and S. Tilton, Methods and Principles in Medicinal Chemistry, 2008, 37, 407) parent model mononuclear species ([Ru(phen)2(Me2bpy)]^2+) and the trinuclear and tetranuclear complexes.
The partition coefficients (logP) were measured using the shake flask technique: each ruthenium complex (at both 0.05 and 0.1 mM) was dissolved in the water phase (0.2 M Na2HPO4—NaH2PO4 buffer, pH=7.4) and an equivalent volume of n-octanol was added.
The two phases were mutually saturated by shaking overnight at ambient temperature and then were allowed to separate on standing. The concentration of the metal complex in each phase was determined spectrophotometrically at l=450 nm.

Molecule	MIC E. coli [1] [µg/mL]	MIC MRSA [2] [µg/mL]	MIC P. aeruginosa [3] [µg/mL]	MIC S. aureus [4] [µg/mL]	logP [5]
[{Ru(phen)2}2(μ-bb12)] [ΛΛ-Rubb12]	2	2	16	2	–
Cc1cnc2c(ccc3c(C)c(C)cnc32)c1C.Cc1cnc2c(ccc3c(C)c(C)cnc32)c1C.Cc1cnc2c(ccc3c(C)c(C)cnc32)c1C.[Ru+2] [[Ru(Me4phen)3]^2+, reference compound]	8	4	32	0.5	–
Cc1cc[n+]2c(c1)-c1cc(CCc3cc[n+]4c(c3)-c3cc(C)cc[n+]3[Ru-4]435([n+]4cccc6ccc7ccc[n+]3c7c64)[n+]3cccc4ccc6ccc[n+]5c6c43)cc[n+]1[Ru-4]213([n+]2cccc4ccc5ccc[n+]1c5c42)[n+]1cccc2ccc4ccc[n+]3c4c21 [Rubb2, [{Ru(phen)2}2(μ-bb2)]^4+]	–	–	–	–	−3.6
Δ*Δ*-[{Ru*(phen)2}(μ-bb7) {Ru(phen)}(μ-bb7){Ru(phen)}(μ-bb7)-{Ru*(phen)2}]Cl8 [Rubb7tetranuclear]	32	8	8	8	−1.9
Cc1cc[n+]2c(c1)-c1cc(CCCCCCCCCCCCCCc3cc[n+]4c(c3)-c3cc(C)cc[n+]3[Ru-4]435([n+]4cccc6ccc7ccc[n+]3c7c64)[n+]3cccc4ccc6ccc[n+]5c6c43)cc[n+]1[Ru-4]213([n+]2cccc4ccc5ccc[n+]1c5c42)[n+]1cccc2ccc4ccc[n+]3c4c21.[Cl-].[Cl-].[Cl-].[Cl-] [ΛΛ-Rubb14, [{Ru(phen)2}2(μ-bb14)]Cl4]	2	1	8	1	–
Cc1cc[n+]2c(c1)-c1cc(CCc3cc[n+]4c(c3)-c3cc(C)cc[n+]3[Ru-4]435([n+]4cccc6ccc7ccc[n+]3c7c64)[n+]3cccc4ccc6ccc[n+]5c6c43)cc[n+]1[Ru-4]213([n+]2cccc4ccc5ccc[n+]1c5c42)[n+]1cccc2ccc4ccc[n+]3c4c21 [ΔΔ-Rubb2, [{Ru(phen)2}2(μ-bb2)]^4+]	>128	–	–	–	–
[Ru(Me2phen)3]^2+ [reference compound]	128	128	>128	8	–
ΔΔ-[{Ru(phen)2}2(μ-bbO7)](PF6)4 [ΔΔ-RubbO7]	128	128	>128	128	–
Cc1ccnc(-c2cc(CCCCCCCCCCc3ccnc(-c4cc(C)ccn4)c3)ccn2)c1.F[P-](F)(F)(F)(F)F.F[P-](F)(F)(F)(F)F.F[P-](F)(F)(F)(F)F.F[P-](F)(F)(F)(F)F.[Ru+2].[Ru+2].c1cnc2c(c1)ccc1cccnc12.c1cnc2c(c1)ccc1cccnc12.c1cnc2c(c1)ccc1cccnc12.c1cnc2c(c1)ccc1cccnc12 [ΛΛ-Rubb10, [{Ru(phen)2}2(μ-bb10)](PF6)4]	4	8	32	8	–
Cc1cc[n+]2c(c1)-c1cc(CCc3cc[n+]4c(c3)-c3cc(C)cc[n+]3[Ru-4]435([n+]4cccc6ccc7ccc[n+]3c7c64)[n+]3cccc4ccc6ccc[n+]5c6c43)cc[n+]1[Ru-4]213([n+]2cccc4ccc5ccc[n+]1c5c42)[n+]1cccc2ccc4ccc[n+]3c4c21 [ΛΛ-Rubb2, [{Ru(phen)2}2(μ-bb2)]^4+]	–	>128	>128	>128	–
ΔΔ-[{Ru(phen)2}2(μ-bbN7)] [ΔΔ-RubbN7]	>128	>128	>128	>128	–
[{Ru(phen)2}2(μ-bb5)](PF6)4 [Rubb5]	–	–	–	–	−3.5
[{Ru(phen)2}2(μ-bb5)](PF6)4 [ΛΛ-Rubb5]	64	128	128	128	–
Cc1cc[n+]2c(c1)-c1cc(CCCCCCCCCCCCCCc3cc[n+]4c(c3)-c3cc(C)cc[n+]3[Ru-4]435([n+]4cccc6ccc7ccc[n+]3c7c64)[n+]3cccc4ccc6ccc[n+]5c6c43)cc[n+]1[Ru-4]213([n+]2cccc4ccc5ccc[n+]1c5c42)[n+]1cccc2ccc4ccc[n+]3c4c21.[Cl-].[Cl-].[Cl-].[Cl-] [Rubb14, [{Ru(phen)2}2(μ-bb14)]Cl4]	–	–	–	–	−2.3
ΔΔ-[{Ru(phen)2}2(μ-bbN12)]Cl4 [ΔΔ-RubbN12]	128	128	>128	128	–
Cc1ccnc(-c2cc(CCCCCCCCCCc3ccnc(-c4cc(C)ccn4)c3)ccn2)c1.F[P-](F)(F)(F)(F)F.F[P-](F)(F)(F)(F)F.F[P-](F)(F)(F)(F)F.F[P-](F)(F)(F)(F)F.[Ru+2].[Ru+2].c1cnc2c(c1)ccc1cccnc12.c1cnc2c(c1)ccc1cccnc12.c1cnc2c(c1)ccc1cccnc12.c1cnc2c(c1)ccc1cccnc12 [Rubb10, [{Ru(phen)2}2(μ-bb10)](PF6)4]	–	–	–	–	−3.3
Cc1ccnc(-c2cc(CCCCCCCCCCCCCCCCc3ccnc(-c4cc(C)ccn4)c3)ccn2)c1.[Cl-].[Cl-].[Cl-].[Cl-].[Ru+2].[Ru+2].c1cnc2c(c1)ccc1cccnc12.c1cnc2c(c1)ccc1cccnc12.c1cnc2c(c1)ccc1cccnc12.c1cnc2c(c1)ccc1cccnc12 [ΛΛ-Rubb16, [{Ru(phen)2}2(μ-bb16)]Cl4]	4	1	8	1	–
[Ru+2].c1cnc2c(c1)ccc1cccnc12.c1cnc2c(c1)ccc1cccnc12.c1cnc2c(c1)ccc1cccnc12 [[Ru(phen)3]^2+, reference compound]	>128	>128	>128	>128	–
Cc1cc[n+]2c(c1)-c1cc(CCCCCCCc3cc[n+]4c(c3)-c3cc(C)cc[n+]3[Ru-4]435([n+]4cccc6ccc7ccc[n+]3c7c64)[n+]3cccc4ccc6ccc[n+]5c6c43)cc[n+]1[Ru-4]213([n+]2cccc4ccc5ccc[n+]1c5c42)[n+]1cccc2ccc4ccc[n+]3c4c21.F[P-](F)(F)(F)(F)F.F[P-](F)(F)(F)(F)F.F[P-](F)(F)(F)(F)F.F[P-](F)(F)(F)(F)F [ΛΛ-Rubb7, [{Ru(phen)2}2(μ-bb7)](PF6)4]	16	32	64	64	–
ΔΔ-[{Ru(phen)2}2(μ-bb14)](PF6)4 [ΔΔ-Rubb14]	4	1	8	1	–
[{Ru(phen)2}2(μ-bb5)](PF6)4 [ΔΔ-Rubb5]	128	128	>128	128	–
